In patent publication US5783597A, “2,5-disubstituted thiophenes: inhibitors of 5-lipoxygenase and inducible cyclooxygenase (COX-2) enzymes, composition and use” (Ortho Pharmaceutical Corporation, priority 1997, dated 1998):
pIC50: −log10 of the molar value.

Tests used:
[1] = target: T1, 5-lipoxygenase (5-LO) (Rattus norvegicus, UniProt P12527); test: RBL-1 cell 5-lipoxygenase and cyclooxygenase - Homogenate (Procedure I); type: biochemical
T1 construct: endogenous in cells; host or cells: intact RBL-1 (rat basophilic leukemia) cells, stimulated with calcium ionophore A23187
T1 sequence (P12527 1-673): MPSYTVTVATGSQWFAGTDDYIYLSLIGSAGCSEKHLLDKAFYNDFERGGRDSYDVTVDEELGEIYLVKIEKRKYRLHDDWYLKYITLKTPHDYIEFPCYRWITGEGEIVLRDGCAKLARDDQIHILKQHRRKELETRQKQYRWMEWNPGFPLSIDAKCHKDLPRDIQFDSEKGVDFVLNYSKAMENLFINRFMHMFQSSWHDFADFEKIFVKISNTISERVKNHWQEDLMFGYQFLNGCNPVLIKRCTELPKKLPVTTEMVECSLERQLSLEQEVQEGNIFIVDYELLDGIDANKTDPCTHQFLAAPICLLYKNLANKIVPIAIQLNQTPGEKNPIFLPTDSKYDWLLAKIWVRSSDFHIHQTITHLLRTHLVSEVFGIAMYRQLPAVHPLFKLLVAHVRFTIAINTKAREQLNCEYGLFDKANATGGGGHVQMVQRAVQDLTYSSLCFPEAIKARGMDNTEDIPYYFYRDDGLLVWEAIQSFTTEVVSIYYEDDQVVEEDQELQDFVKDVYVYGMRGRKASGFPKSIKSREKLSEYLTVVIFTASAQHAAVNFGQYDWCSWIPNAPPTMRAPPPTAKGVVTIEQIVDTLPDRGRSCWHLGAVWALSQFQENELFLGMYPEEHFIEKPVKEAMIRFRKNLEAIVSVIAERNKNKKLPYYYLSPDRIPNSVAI
Procedure: RBL-1 cell 5-lipoxygenase and cyclooxugenase - Homogenate
Rat basophilic leukemia cells (RBL-1; 5×10^7 viable cells/mL) were disrupted by homogenization on ice (four 20 sec bursts) with a Brinkman polytron. […] The homogenate was then centrifuged at 9,220×g for 48 minutes at 4° C. The pellet was discarded and the supernatant was saved as the source of enzymes. The supernatant was pre-incubated for five minutes at 37° C. in the presence of 2 mM of CaCl2 and compound or vehicle (1% DMSO). The conversion of AA into products by CO and LO was initiated by adding 10 μL (50 μCi) of 1-^14 C-AA to each tube and incubated at 37° C. for 20 minutes. The reaction was stopped by adjusting the pH of each sample to 3 to 3.5 with 2M formic acid. Samples were extracted with three volumes of chloroform to isolate the products of 5-LO formed during the reaction. Fractions were dried under nitrogen, then resuspended in 40 μL of chloroform and spotted onto silica gel HL plates. The plates were developed in A-9 solvent. The dried plates were analyzed using a Bioscan Imaging TLC scanner to determine the percentage of radiolabelled M converted to 5-HETE (LO product) and PGD2 (CO product) in each sample.

[2] = target: T1, 5-lipoxygenase (5-LO); test: RBL-1 cell 5-lipoxygenase and cyclooxygenase - Whole cells (Procedure II); type: cell-based
Procedure: RBL-1 Cell 5-Lipoxygenase and cyclooxygenase - Whole cells
The ability to inhibit 5-LO and CO in intact RBL-1 cells was also evaluated. […] Cells were collected by centrifugation, washed once in HBSS, and resuspended at a concentration of 1×10^5 cells/mL. Cells were incubated in the presence of vehicle or drug then centrifuged at 800×g for 10 minutes at 4° C. The supernatant was removed by aspiration and the cells were resuspended in 0.5 mL of HBSS. […] The conversion of M to 5-LO products was initiated by the addition of 10 μL (50 uCi) of 1-^14 C-AA. Products were isolated by acidification and extraction, followed by thin layer chromatography analysis as described above. Radioactive areas corresponding to authentic 5-LO (5-HETE) and CO (PGD2) products were quantitated by the Bioscan 2000 Imaging System.

[3] = target: T2, Human Prostaglandin H2 Synthase Typ II (Cox-2) (Homo sapiens, UniProt P35354); test: Human Prostaglandin H2 Synthase Typ II (Cox-2) Whole Cell Assay, ECV-304 cells (Procedure III); type: cell-based; settings: ECV-304 whole cells; for pIC50: PGE2 produced, read-out: Procedure III (COX-2) Wh Cell IC50; for inhibition at 10 µM: read-out: Procedure III (COX-2) Wh Cell, percent inhibition of PGE2 produced
T2 construct: endogenous in cells; host or cells: ECV-304 cells treated with PMA and ionomycin for 16 hours
T2 sequence (P35354 18-604): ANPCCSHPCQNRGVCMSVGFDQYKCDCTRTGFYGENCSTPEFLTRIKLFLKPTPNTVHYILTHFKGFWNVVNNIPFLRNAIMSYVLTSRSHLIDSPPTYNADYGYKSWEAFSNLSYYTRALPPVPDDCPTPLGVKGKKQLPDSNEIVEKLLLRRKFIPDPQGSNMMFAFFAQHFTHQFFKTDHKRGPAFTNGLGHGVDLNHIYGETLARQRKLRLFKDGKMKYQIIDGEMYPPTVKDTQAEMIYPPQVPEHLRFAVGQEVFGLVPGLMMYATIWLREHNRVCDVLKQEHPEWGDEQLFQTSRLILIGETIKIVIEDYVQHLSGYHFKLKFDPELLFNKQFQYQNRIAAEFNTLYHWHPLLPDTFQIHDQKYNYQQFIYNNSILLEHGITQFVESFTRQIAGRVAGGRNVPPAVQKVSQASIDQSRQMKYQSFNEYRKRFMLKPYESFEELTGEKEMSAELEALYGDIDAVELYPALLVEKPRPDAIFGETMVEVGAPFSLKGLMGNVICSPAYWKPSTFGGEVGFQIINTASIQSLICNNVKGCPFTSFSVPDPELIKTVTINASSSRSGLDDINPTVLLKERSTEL
Procedure: Human Prostaglandin H2 Synthase Typ II (Cox-2) Whole Cell Assay (Multiple Concentrations)
ECV-304 (human, endothelial, umbilical cord) cells are maintained in culture in a suitable medium, and are trypsinized and plated at a density of 1×10^6 cells per well of a 6 well plate prior to assay. Approximately 28 hours later, 50 μg/ml PMA and […] ionomycin (both final concentrations) are added to each well and incubated for an additional 16 hours. Vehicle or test compounds are incubated with the cells for five minutes prior to initiation of Cox-2 enzyme activity by the addition of 30 μM arachidonic acid. Ten minutes later, an aliquot of the supernatant is withdrawn and the amount of PGE2 present quantitated by radioimmunoassay. Activity, reported as percent inhibition of PGE2 produced, is calculated as follows: […]

[4] = RBL-1 homogenate supernatant, 5-HETE, read-out: Procedure I (5-LO) Homog. IC50
[5] = intact RBL-1 cells, 5-HETE, read-out: Procedure II (5-LO) Wh Cell IC50

| SMILES | pIC50 [1, 4] | pIC50 [2, 5] | pIC50 [3] | inhibition at 10 µM [3] [%] | pIC50 [1] | pIC50 [2] |
| --- | --- | --- | --- | --- | --- | --- |
| CSc1ccc(Oc2ccc(NS(C)(=O)=O)s2)cc1 [Example 4] | 7.00 | 6.18 |  | 39 |  |  |
| CS(=O)(=O)Nc1ccc(Oc2cccc(Cl)c2)s1 [Example 8] | 7.22 | 6.30 | 4.99 |  |  |  |
| Cc1cccc(Oc2ccc(NS(C)(=O)=O)s2)c1C [Example 9] | 7.22 | 6.18 |  | 54 |  |  |
| CS(=O)(=O)Nc1ccc(Oc2ccc(Cl)cc2)s1 [Example 12] | 7.12 | 6.18 | 4.74 |  |  |  |
| CS(=O)(=O)Nc1ccc(Oc2ccc(Cl)cc2Cl)s1 [Example 13] | 7.05 | 6.19 | 5.24 |  |  |  |
| CS(=O)(=O)Nc1ccc(Oc2ccc(F)cc2F)s1 [Example 14] | 6.82 | 6.14 | 5.71 |  |  |  |
| Cc1cccc(Oc2ccc(NS(C)(=O)=O)s2)c1 [Example 15] | 6.92 | 6.51 | 5.77 |  |  |  |
| CS(=O)(=O)Nc1ccc(Oc2ccc(F)cc2Br)s1 [Example 17] | 7.22 | 5.85 | 5.28 |  |  |  |
| CS(=O)(=O)Nc1ccc(Oc2cc(C(F)(F)F)cc(C(F)(F)F)c2)s1 [Example 18] | 6.51 | 5.19 |  | 8 |  |  |
| CS(=O)(=O)Nc1ccc(Oc2cc(C(F)(F)F)ccc2Cl)s1 [Example 19] |  |  |  | 29 | 6.85 | 5.74 |
| CC(C)c1cccc(Oc2ccc(NS(C)(=O)=O)s2)c1 [Example 20] | 6.21 | 5.33 |  | 36 |  |  |
| CS(=O)(=O)Nc1ccc(Oc2ccc3ccccc3c2)s1 [Example 22] | 7.22 | 6.11 | 5.00 |  |  |  |
| CS(=O)(=O)Nc1ccc(Oc2cccc3c2CCCC3)s1 [Example 23] |  |  | 5.00 |  |  |  |
| CCCCS(=O)(=O)Nc1ccc(Oc2ccccc2)s1 [Example 24] | 6.44 | 5.95 | 5.00 |  |  |  |
| CC(C)S(=O)(=O)Nc1ccc(Oc2ccccc2)s1 [Example 25] | 7.30 | 5.98 |  | 16 |  |  |
| CCCCCCCCS(=O)(=O)Nc1ccc(Oc2ccccc2)s1 [Example 26] | 6.52 | 5.54 |  | 8 |  |  |
| O=S(=O)(Nc1ccc(Oc2ccccc2)s1)c1ccccc1 [Example 27] | 7.00 | 6.05 |  | 44 |  |  |
| CS(=O)(=O)Nc1ccc(Sc2ccccc2)s1 [Example 28] | 6.72 | 6.15 |  | 33 |  |  |
| CCCCCSc1ccc(NS(C)(=O)=O)s1 [Example 30] | 7.40 | 6.20 | 5.56 |  |  |  |
| CS(=O)(=O)Nc1ccc(-c2ccc(F)cc2)s1 [Example 32, N-5-[(4-fluoro)phenyl-thien-2-yl]methanesulfonamide] | 6.82 | 5.68 |  | 3 |  |  |
| CS(=O)(=O)Nc1ccc(-c2ccccc2)s1 [Example 33, N-5-[phenyl-thien-2-yl]methanesulfonamide] | 6.96 | 6.10 |  | 31 |  |  |

The next lines start with results.

| pIC50 [1, 4] | pIC50 [2, 5] | pIC50 [3] | inhibition at 10 µM [3] [%] | SMILES | pIC50 [1] | pIC50 [2] |
| --- | --- | --- | --- | --- | --- | --- |
| 7.15 | 6.33 | 5.37 |  | CS(=O)(=O)Nc1ccc(Oc2ccccc2)s1 [Example 2] |  |  |
| 6.80 | 6.31 |  | 13 | CS(=O)(=O)Nc1ccc(Oc2cccc(F)c2)s1 [Example 3] |  |  |
| 5.74 | 4.41 |  | 0 | CS(=O)(=O)Nc1ccc(Oc2ccc(S(C)(=O)=O)cc2)s1 [Example 5] |  |  |
| 7.52 | 6.05 | 5.28 |  | CS(=O)(=O)Nc1ccc(Oc2ccc(F)c(Cl)c2)s1 [Example 6] |  |  |
| 7.70 | 5.84 |  | 0 | COc1ccc(Oc2ccc(NS(C)(=O)=O)s2)cc1 [Example 7] |  |  |
| 7.22 | 6.11 | 5.99 |  | CS(=O)(=O)Nc1ccc(Oc2cccc(C(F)(F)F)c2)s1 [Example 10] |  |  |
| 7.70 | 6.51 | 5.93 |  | Cc1cc(Oc2ccc(NS(C)(=O)=O)s2)ccc1F [Example 11] |  |  |
| 7.05 | 5.96 | 5.72 |  | Cc1cc(F)ccc1Oc1ccc(NS(C)(=O)=O)s1 [Example 16] |  |  |
| 7.15 | 6.10 | 5.52 |  | CS(=O)(=O)Nc1ccc(Oc2cccc3ccccc23)s1 [Example 21] |  |  |
| 7.15 | 5.62 | 5.04 |  | CS(=O)(=O)Nc1ccc(SC2CCCCC2)s1 [Example 29] |  |  |
| 6.96 | 6.42 |  | 45 | CS(=O)(=O)Nc1ccc(Cc2ccccc2)s1 [Example 31, N-(5-Benzylthien-2-yl)methanesulfonamide] |  |  |
